# Test results taken from ChEMBL document CHEMBL6109153, “Development of Membrane-Targeting Osthole Derivatives Containing Pyridinium Quaternary Ammonium Moieties with Potent Anti-Methicillin-Resistant Staphylococcus aureus Properties” (J Med Chem, 2025).
# What was measured:
# Staphylococcus aureus [1] = test: Induction of cell permeability in methicillin-resistant Staphylococcus aureus M11 assessed as fold increase in fluorescence intensity at 32 times MIC by SYTOX Green dye based analysis relative to control; assay type: functional
# Staphylococcus aureus [2] = test: Induction of resistance development in Staphylococcus aureus ATCC 29213 assessed as fold change in MIC at 0.5 times MIC measured after 18 passages by broth microdilution method; assay type: functional
# Staphylococcus aureus [3] = test: Antibacterial activity against methicillin-resistant Staphylococcus aureus M17 incubated for 16 to 20 hrs by broth microdilution method; assay type: functional; details: time 16-20 hrs
# Staphylococcus aureus [4] = test: Antibacterial activity against methicillin-resistant Staphylococcus aureus M23 incubated for 16 to 20 hrs by broth microdilution method; assay type: functional; details: time 16-20 hrs
# Staphylococcus aureus [5] = test: Antibacterial activity against methicillin-resistant Staphylococcus aureus M21 incubated for 16 to 20 hrs by broth microdilution method; assay type: functional; details: time 16-20 hrs
# Staphylococcus aureus [6] = test: Antibacterial activity against methicillin-resistant Staphylococcus aureus M12 incubated for 16 to 20 hrs by broth microdilution method; assay type: functional; details: time 16-20 hrs
# Staphylococcus aureus [7] = test: Antibacterial activity against methicillin-resistant Staphylococcus aureus M14 incubated for 16 to 20 hrs by broth microdilution method; assay type: functional; details: time 16-20 hrs
# Staphylococcus aureus [8] = test: Antibacterial activity against methicillin-resistant Staphylococcus aureus M13 incubated for 16 to 20 hrs by broth microdilution method; assay type: functional; details: time 16-20 hrs
# [9] = Hemolytic activity against sheep erythrocytes; assay type: toxicity, cell-based, Ovis aries, Erythrocyte
# Escherichia coli = test: Antibacterial activity against Escherichia coli ATCC 25922 incubated for 16 to 20 hrs by broth microdilution method; assay type: functional; details: time 16-20 hrs
# Staphylococcus aureus [10] = test: Antibacterial activity against Staphylococcus aureus ATCC 29213 incubated for 16 to 20 hrs by broth microdilution method; assay type: functional; details: time 16-20 hrs
# Staphylococcus aureus [11] = test: Antibacterial activity against methicillin-resistant Staphylococcus aureus M16 incubated for 16 to 20 hrs by broth microdilution method; assay type: functional; details: time 16-20 hrs
# Staphylococcus aureus [12] = test: Antibacterial activity against methicillin-resistant Staphylococcus aureus M11 incubated for 16 to 20 hrs by broth microdilution method; assay type: functional; details: time 16-20 hrs
# Staphylococcus aureus [13] = test: Antibacterial activity against methicillin-resistant Staphylococcus aureus M20 incubated for 16 to 20 hrs by broth microdilution method; assay type: functional; details: time 16-20 hrs
# Staphylococcus aureus [14] = test: Antibacterial activity against methicillin-resistant Staphylococcus aureus M22 incubated for 16 to 20 hrs by broth microdilution method; assay type: functional; details: time 16-20 hrs
Compound,fold change (FC) (Staphylococcus aureus [1]),fold change (FC) (Staphylococcus aureus [2]),MIC (Staphylococcus aureus [3]) [µg/mL],MIC (Staphylococcus aureus [4]) [µg/mL],MIC (Staphylococcus aureus [5]) [µg/mL],MIC (Staphylococcus aureus [6]) [µg/mL],MIC (Staphylococcus aureus [7]) [µg/mL],MIC (Staphylococcus aureus [8]) [µg/mL],HC50 [9] [µg/mL],MIC (Escherichia coli) [µg/mL],MIC (Staphylococcus aureus [10]) [µg/mL],MIC (Staphylococcus aureus [11]) [µg/mL],MIC (Staphylococcus aureus [12]) [µg/mL],MIC (Staphylococcus aureus [13]) [µg/mL],MIC (Staphylococcus aureus [14]) [µg/mL]
CC[C@H](C)[C@H](NC(=O)CN)C(=O)NCC(=O)N[C@@H](C)C(=O)N[C@H](C(=O)N[C@@H](CC(C)C)C(=O)N[C@@H](CCCCN)C(=O)N[C@H](C(=O)N[C@@H](CC(C)C)C(=O)N[C@H](C(=O)N[C@H](C(=O)NCC(=O)N[C@@H](CC(C)C)C(=O)N1CCC[C@H]1C(=O)N[C@@H](C)C(=O)N[C@@H](CC(C)C)C(=O)N[C@H](C(=O)N[C@@H](CO)C(=O)N[C@@H](Cc1c[nH]c2ccccc12)C(=O)N[C@H](C(=O)N[C@@H](CCCCN)C(=O)N[C@@H](CCCNC(=N)N)C(=O)N[C@@H](CCCCN)C(=O)N[C@@H](CCCNC(=N)N)C(=O)N[C@@H](CCC(N)=O)C(=O)N[C@@H](CCC(N)=O)C(N)=O)[C@@H](C)CC)[C@@H](C)CC)[C@@H](C)O)[C@@H](C)O)C(C)C)C(C)C [MELITTIN],~8,–,–,–,–,–,–,–,–,–,–,–,–,–,–
CCn1cc(C(=O)O)c(=O)c2cc(F)c(N3CCNCC3)cc21 [NORFLOXACIN],–,128,–,–,–,–,–,–,–,–,–,–,–,–,–
CCCN(CCC)C(=O)C[n+]1ccc(SCCCCOc2ccc3ccc(=O)oc3c2CC=C(C)C)cc1.[Br-],–,–,2,2,2,4,2,8,> 160,> 128,2,2,2,1,2
CCCCCNC(=O)C[n+]1ccc(SCCCOc2ccc3ccc(=O)oc3c2CC=C(C)C)cc1.[Br-],–,–,2,8,2,4,2,8,> 160,64,2,4,2,2,2
CCCNC(=O)C[n+]1ccc(SCCCOc2ccc3ccc(=O)oc3c2CC=C(C)C)cc1.[Br-],–,–,16,8,8,16,8,32,> 160,> 128,8,8,8,8,8
